Measured values from ChEMBL document CHEMBL5518245, “Development of an Imidazopyridazine-Based MNK1/2 Inhibitor for the Treatment of Lymphoma” (J Med Chem, 2024).

Assays:
[1] = target: Voltage-gated inwardly rectifying potassium channel KCNH2 (Homo sapiens, UniProt Q12809)
in vitro [2] = details: human, liver microsomes
in vitro [3] = details: dog, liver microsomes
in vitro [4] = details: rat, liver microsomes
LN-18 = assay: Antiproliferative activity against human LN-18 cells assessed as inhibition of cell growth incubated for 72 hrs MTS assay; type: functional, cell-based; details: LN-18, 72 h
TMD8 [5] = assay: Antitumor activity against human TMD8 cells xenografted in mouse assessed as tumor growth inhibition at 10 mg/kg, po; type: functional; details: read-out: TGI
TMD8 [6] = assay: cells; details: Homo sapiens, TMD8, 72 h
DOHH-2 = assay: cells; details: Homo sapiens, DOHH-2, 72 h
HT-29 = assay: cells; details: Homo sapiens, HT-29, 72 h
PC-3 = assay: cells; details: Homo sapiens, PC-3, 72 h
A549 = assay: cells; details: Homo sapiens, A549, 72 h
PANC-1 = assay: cells; details: Homo sapiens, PANC-1, 72 h
MDA-MB-231 = assay: cells; details: Homo sapiens, MDA-MB-231, 72 h

Sequence of Voltage-gated inwardly rectifying potassium channel KCNH2 (Q12809 whole entry): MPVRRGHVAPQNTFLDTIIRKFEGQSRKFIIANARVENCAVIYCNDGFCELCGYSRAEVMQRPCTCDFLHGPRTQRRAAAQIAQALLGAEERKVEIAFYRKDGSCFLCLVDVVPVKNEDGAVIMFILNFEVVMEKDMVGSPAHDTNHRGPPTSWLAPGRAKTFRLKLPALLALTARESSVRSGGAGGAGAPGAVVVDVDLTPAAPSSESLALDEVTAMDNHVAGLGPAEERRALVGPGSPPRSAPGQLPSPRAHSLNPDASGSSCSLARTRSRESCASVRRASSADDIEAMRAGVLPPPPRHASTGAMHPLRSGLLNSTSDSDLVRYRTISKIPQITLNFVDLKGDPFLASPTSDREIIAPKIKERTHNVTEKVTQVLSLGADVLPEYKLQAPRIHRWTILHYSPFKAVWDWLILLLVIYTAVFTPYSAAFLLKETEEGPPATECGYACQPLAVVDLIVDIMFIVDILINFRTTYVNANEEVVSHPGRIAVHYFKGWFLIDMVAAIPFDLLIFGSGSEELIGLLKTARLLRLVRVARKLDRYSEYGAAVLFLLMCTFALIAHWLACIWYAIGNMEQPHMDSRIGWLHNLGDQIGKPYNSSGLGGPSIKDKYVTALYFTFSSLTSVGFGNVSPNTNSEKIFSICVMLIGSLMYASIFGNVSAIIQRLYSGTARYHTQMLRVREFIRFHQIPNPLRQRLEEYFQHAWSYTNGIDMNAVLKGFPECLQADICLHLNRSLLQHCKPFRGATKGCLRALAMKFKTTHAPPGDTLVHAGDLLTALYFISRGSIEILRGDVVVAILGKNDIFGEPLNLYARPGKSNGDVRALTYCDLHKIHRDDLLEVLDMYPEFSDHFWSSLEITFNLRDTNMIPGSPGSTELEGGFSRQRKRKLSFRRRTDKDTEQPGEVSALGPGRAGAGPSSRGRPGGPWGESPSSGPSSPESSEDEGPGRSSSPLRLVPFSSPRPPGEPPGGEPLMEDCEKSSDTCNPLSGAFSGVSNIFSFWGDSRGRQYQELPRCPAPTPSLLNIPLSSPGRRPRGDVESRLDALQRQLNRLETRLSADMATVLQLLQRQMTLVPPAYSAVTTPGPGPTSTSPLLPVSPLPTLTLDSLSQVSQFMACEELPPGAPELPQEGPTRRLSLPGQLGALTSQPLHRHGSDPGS

Question: With `NC1CCN(C(=O)c2ccc(-c3ccc4ncc(-c5cc6ccccc6o5)n4c3)cc2)CC1` as the molecule, how does the IC50 [1] read?
Answer: The IC50 was 4.4 µM.

Question: For `N[C@H]1CCCN(C(=O)c2ccc(-c3ccc4ncc(-c5cc6ccccc6o5)n4n3)cc2)C1`, which IC50 [1] is on record?
Answer: Its IC50 is greater than 30 µM.

Question: Which IC50 [1] does the source give for `CN(C)C1CCN(C(=O)c2ccc(-c3ccc4ncc(-c5cc6ccccc6o5)n4c3)cc2)CC1` here?
Answer: The IC50 was 1.03 µM.

Question: Which IC50 [1] does the source give for `O=C(c1ccc(-c2ccc3ncc(-c4cc5ccccc5o4)n3n2)cc1)N1CCC(N2CCCCC2)CC1` here?
Answer: The IC50 was greater than 30 µM.

Question: With `O=C(c1ccc(-c2ccc3ncc(-c4cc5ccccc5o4)n3n2)cc1)N1CCOCC1` as the molecule, how does the IC50 [1] read?
Answer: The IC50 was greater than 30 µM.

Question: With `N[C@@H]1CCCN(C(=O)c2ccc(-c3ccc4ncc(-c5cc6ccccc6o5)n4n3)cc2)C1` as the molecule, how does the IC50 [1] read?
Answer: The IC50 was 5.82 µM.

Question: For `N[C@@H]1CCCN(C(=O)c2ccc(-c3ccc4ncc(-c5cc6ccccc6o5)n4c3)cc2)C1`, which IC50 [1] is on record?
Answer: Its IC50 is 4.66 µM.

Question: With `CN(C)C1CCN(C(=O)c2ccc(-c3ccc4ncc(-c5cc6ccccc6o5)n4n3)cc2)CC1` as the molecule, how does the IC50 [1] read?
Answer: The IC50 was 2.97 µM.

Question: For `NC1CCN(C(=O)c2ccc(-c3ccc4ncc(-c5cc6ccccc6o5)n4n3)cc2)CC1`, which IC50 [1] is on record?
Answer: Its IC50 is 7.98 µM.

Question: With `N#Cc1ccc(-c2cnc3ccc(-c4ccc(C(=O)N5CCOCC5)cc4)cn23)cc1` [TINODASERTIB] as the molecule, how does the half-life (in vitro [2]) read?
Answer: The half-life was 1.12 h.

Question: What about the half-life (in vitro [3]) of the same molecule?
Answer: Its half-life is 1.39 h.

Question: What about the half-life (in vitro [4]) of the same molecule?
Answer: The half-life was 0.302 h.

Question: With `Cc1cc(Nc2cc(N)ncn2)c(=O)n2c1C(=O)NC21CCCCC1` [TOMIVOSERTIB] as the molecule, how does the IC50 (LN-18) read?
Answer: The IC50 was 6.27 µM.

Question: And the inhibition in vivo at 10 mg/kg (TMD8 [5])?
Answer: Its inhibition in vivo at 10 mg/kg is 75%.

Question: What about the IC50 [1] of the same molecule?
Answer: The IC50 was greater than 30 µM.

Question: And the IC50 (TMD8 [6])?
Answer: The IC50 was greater than 50 µM.

Question: What about the IC50 (DOHH-2) of the same molecule?
Answer: Its IC50 is 6.3 µM.

Question: What about the IC50 (HT-29) of the same molecule?
Answer: Its IC50 is greater than 50 µM.

Question: And the IC50 (PC-3)?
Answer: Its IC50 is 29.4 µM.

Question: And the IC50 (A549)?
Answer: The IC50 was greater than 50 µM.

Question: What about the IC50 (PANC-1) of the same molecule?
Answer: Its IC50 is greater than 50 µM.

Question: What about the IC50 (MDA-MB-231) of the same molecule?
Answer: The IC50 was 45 µM.

Question: And the half-life (in vitro [2])?
Answer: The half-life was greater than 2 h.

Question: What about the half-life (in vitro [3]) of the same molecule?
Answer: Its half-life is greater than 2 h.

Question: What about the half-life (in vitro [4]) of the same molecule?
Answer: Its half-life is greater than 2 h.
